These cell lines were tested with Cc1cc([C@@H](C)Nc2ccccc2C(=O)O)c2nc(N3CCOCC3)cc(=O)n2c1 [AZD6482] + COc1cc2c(Oc3ccc(NC(=O)C4(C(=O)Nc5ccc(F)cc5)CC4)cc3F)ccnc2cc1OCCCN1CCOCC1 [Foretinib] (partner 0.25 µM) (assay: relative viability (nuclei count vs DMSO), 5 days (fraction); higher = more cells survive). Conditions: first compound 0.08 µM.
Summary of the method: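 After 5 days of treatment, lung cancer cells in 1536-well plates were fixed and stained in a single step (final 0.05% Triton X-100, 1% formaldehyde, 1 ug/ml Hoechst) and their nuclei counted on 4× images. Treatment had been applied by pin tool the day after seeding as one drug alone or as a fixed anchor-drug dose with five library-drug doses (not always all listed) in √10 steps. Relative viability is the nuclei count of treated wells divided by that of vehicle wells, and values are medians of duplicate plates.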

In order of falling relative viability:
1. NCI-H1299  1.06
2. NCI-H650  1.02
3. NCI-H661  0.962
4. A549  0.898
5. NCI-H1563  0.89
6. ABC-1  0.868
7. SW 900  0.751
8. NCI-H358  0.484

Same assay, conditions: first compound 0.253 µM

In order of rising relative viability:
1. EBC-1  0.104
2. NCI-H1703  0.414
3. LCLC-103H  0.55
4. NCI-H2085  0.637
5. NCI-H520  0.661
6. H3255  0.662
7. NCI-H358  0.706
8. COR-L 105  0.711
9. NCI-H1993  0.745
10. SW 900  0.753
11. SW 1573  0.776
12. SK-MES-1  0.783
13. Calu-6  0.815
14. A549  0.842
15. LOU-NH91  0.846
16. NCI-H596  0.853
17. NCI-H727  0.862
18. ChaGo-K-1  0.863
19. NCI-H1666  0.868
20. NCI-H1563  0.875
21. NCI-H1623  0.888
22. NCI-H2342  0.891
23. HCC-366  0.897
24. NCI-H1650  0.937
25. EMC-BAC-2  0.94
26. NCI-H2126  0.954
27. NCI-H838  0.964
28. NCI-H2087  0.972
29. NCI-H2170  1
30. COR-L23  1.04
31. NCI-H661  1.06
32. LK-2  1.08
33. NCI-H1299  1.13
34. IA-LM  1.2
35. ABC-1  1.21

Same assay, conditions: first compound 0.8 µM

In order of falling relative viability:
1. IA-LM  1.52
2. NCI-H1299  1.31
3. LK-2  1.22
4. NCI-H661  1.14
5. NCI-H2126  1.12
6. NCI-H2087  1.12
7. NCI-H727  1.03
8. NCI-H1666  1.03
9. COR-L23  1.03
10. COR-L 105  1.03
11. ABC-1  1.03
12. LOU-NH91  0.993
13. NCI-H2342  0.987
14. A549  0.979
15. NCI-H650  0.978
16. EMC-BAC-2  0.969
17. NCI-H2405  0.968
18. NCI-H2170  0.955
19. HCC-366  0.936
20. NCI-H1650  0.933
21. NCI-H1623  0.923
22. NCI-H1563  0.908
23. Calu-6  0.9
24. H3255  0.898
25. NCI-H838  0.873
26. SW 1573  0.862
27. NCI-H1993  0.846
28. ChaGo-K-1  0.833
29. SW 900  0.773
30. NCI-H596  0.766
31. NCI-H358  0.679
32. SK-MES-1  0.565
33. LCLC-103H  0.56
34. NCI-H520  0.493
35. NCI-H2085  0.338
36. NCI-H1703  0.322
37. EBC-1  0.124

Same assay, conditions: first compound 2.53 µM

In order of falling relative viability:
1. NCI-H1299  1.11
2. NCI-H2170  0.922
3. ChaGo-K-1  0.894
4. ABC-1  0.86
5. LK-2  0.822
6. COR-L23  0.81
7. NCI-H727  0.786
8. NCI-H1666  0.785
9. NCI-H1563  0.765
10. HCC-366  0.759
11. NCI-H2126  0.757
12. COR-L 105  0.744
13. NCI-H1650  0.738
14. SW 1573  0.726
15. NCI-H661  0.723
16. EMC-BAC-2  0.718
17. NCI-H1623  0.703
18. NCI-H650  0.651
19. Calu-6  0.644
20. NCI-H596  0.635
21. NCI-H2342  0.614
22. NCI-H2405  0.608
23. LOU-NH91  0.603
24. A549  0.596
25. NCI-H838  0.581
26. NCI-H1993  0.558
27. H3255  0.498
28. SK-MES-1  0.422
29. NCI-H358  0.407
30. LCLC-103H  0.379
31. NCI-H2085  0.308
32. NCI-H1703  0.259
33. NCI-H520  0.203
34. EBC-1  0.0931

Same assay, conditions: first compound 8 µM

In order of rising relative viability:
1. EBC-1  0.115
2. NCI-H1703  0.259
3. NCI-H2085  0.29
4. NCI-H520  0.304
5. LCLC-103H  0.33
6. SK-MES-1  0.403
7. HCC-366  0.447
8. NCI-H838  0.469
9. NCI-H358  0.489
10. NCI-H1993  0.562
11. NCI-H2405  0.57
12. NCI-H596  0.599
13. SW 1573  0.608
14. H3255  0.627
15. NCI-H1563  0.652
16. NCI-H2342  0.653
17. LOU-NH91  0.677
18. NCI-H1623  0.682
19. NCI-H1650  0.684
20. EMC-BAC-2  0.698
21. NCI-H650  0.704
22. ABC-1  0.719
23. NCI-H2126  0.724
24. A549  0.743
25. Calu-6  0.765
26. NCI-H2170  0.785
27. SW 900  0.792
28. NCI-H727  0.797
29. COR-L23  0.799
30. NCI-H661  0.815
31. COR-L 105  0.932
32. LK-2  0.948
33. ChaGo-K-1  0.968
34. NCI-H1666  0.989
35. NCI-H2087  1.08
36. IA-LM  1.09
37. NCI-H1299  1.12

Reference: the supplement of paper PMC10307832
